The assay deals with T1, human recombinant FAP protein (Homo sapiens, UniProt Q12884).
T1 construct: purchased Acrobiosystems FAP-H82Q6
T1 sequence (Q12884 1-760): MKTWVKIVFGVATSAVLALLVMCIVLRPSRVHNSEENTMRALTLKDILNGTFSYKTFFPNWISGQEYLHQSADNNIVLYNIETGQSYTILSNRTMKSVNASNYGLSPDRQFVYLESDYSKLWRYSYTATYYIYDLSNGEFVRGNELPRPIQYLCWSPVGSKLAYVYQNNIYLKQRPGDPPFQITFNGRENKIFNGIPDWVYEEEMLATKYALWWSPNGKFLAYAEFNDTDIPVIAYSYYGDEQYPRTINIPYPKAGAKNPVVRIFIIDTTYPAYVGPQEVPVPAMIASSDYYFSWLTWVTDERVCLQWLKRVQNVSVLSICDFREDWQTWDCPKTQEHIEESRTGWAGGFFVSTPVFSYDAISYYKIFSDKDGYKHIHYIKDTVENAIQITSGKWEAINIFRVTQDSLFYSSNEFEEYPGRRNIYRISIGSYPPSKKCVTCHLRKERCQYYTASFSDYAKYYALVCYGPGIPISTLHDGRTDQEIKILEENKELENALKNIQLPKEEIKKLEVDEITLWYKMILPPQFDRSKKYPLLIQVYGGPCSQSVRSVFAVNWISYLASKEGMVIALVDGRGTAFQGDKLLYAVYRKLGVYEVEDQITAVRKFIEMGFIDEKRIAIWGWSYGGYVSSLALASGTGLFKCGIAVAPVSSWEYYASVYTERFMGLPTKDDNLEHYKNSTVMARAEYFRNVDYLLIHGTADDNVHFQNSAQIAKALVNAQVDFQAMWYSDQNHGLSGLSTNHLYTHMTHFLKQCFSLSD
Put plainly: Inhibitory activity against FAP protease activity (Z-Gly-Pro-AMC fluorescence). Type of assay: biochemical. Particulars: for inhibitory activity against FAP protease activity: in words. Here is the method: The human recombinant FAP protein (Acrobiosystems, FAP-H82Q6) was diluted to a 125 pM FAP working solution with an assay buffer (50 mM Tris-HCl, 1 M NaCl, 1 mg/mL BSA, pH 7.5), and the FAP substrate (Z-Gly-Pro-AMC (LEONBIO, 68542-93-8)) was diluted to a 150 µM substrate working solution with the assay buffer. 40 µl of FAP working solution and 20 µl of compounds at different concentrations (4-fold dilution) were taken, then 40 µl of substrate working solution was added, and the mixture was uniformly mixed on a shaker at room temperature for 1 min. The uniformly mixed mixture was reacted at room temperature in the dark for 90 min. The fluorescence value Ex = 380 nm/Em = 460 nm was read by using a microplate reader. The original data was saved, and the IC50 value of the compound was obtained by using the original data or the Inhibition% via calculation and analyzing the data with Graphpad PRISM.

[1] abbreviates: 125 pM FAP working solution, 90 min at room temperature, read-out: FAP IC50.

Counter-ions that a name gives are not always drawn. Like-named read-outs stand apart in the source and are kept apart here. Numbered stars: 1 amine (or outer) side, 2 acyl side, 3 side chain; on linkers, the order of the positions; unused ones are H or OH. Bridge positions count the residues as written; N and C are the ends. Square brackets hold non-standard residues; d marks the D form. Peptide text beside a SMILES is read from it. * marks the point of attachment. TBMB(SCH2CH2NH-DOTA) = O=C(O)CN1CCN(CC(=O)O)CCN(CC(=O)NCCSCc2cc(C[*:1])cc(C[*:2])c2)CCN(CC(=O)O)CC1; X6 = NC[C@H](CSCc1cccc(C[*:1])c1)N[*:2]; 1Nal = N[C@@H](Cc1cccc2ccccc12)C(=O)O; β3hC = N[C@@H](CS)CC(=O)O; Hexanoyl = CCCCCC(=O)*

In general, IC50 refers to the concentration that gives 50% inhibition. As to `CCCCCC(=O)N[C@H]1CSCc2cccc(c2)CSC[C@@H](CN)NC(=O)[C@H](Cc2ccccc2)NC(=O)[C@H](CCC(N)=O)NC(=O)[C@H]([C@@H](C)O)NC(=O)[C@@H]2CCCN2C(=O)[C@@H]2CCCN2C1=O` [Compound 4, Hex-Cys-Pro-Pro-Thr-Gln-Phe-Cys-CH2NH2 (Cys bridge DBMB) trifluoroacetate] (Hexanoyl-CPPTQF; linker 1-C via X6), the concentration for half-maximal inhibition (IC50) is 11.3 nM. Turning to `CCCCCC(=O)N[C@@H]1CSCc2cc(CSCCNC(=O)CN3CCN(CC(=O)O)CCN(CC(=O)O)CCN(CC(=O)O)CC3)cc(c2)CSC[C@@H](CC(=O)O)NC(=O)[C@H](Cc2cccc3ccccc23)NC(=O)[C@H](CCC(N)=O)NC(=O)[C@H]([C@@H](C)O)NC(=O)[C@@H]2CCCN2C(=O)[C@@H]2CCCN2C1=O` [Compound 78, Hexanoyl-(D-Cys(tMeBn(DOTA-AET))-Pro-Pro-Thr-Gln-1Nal-betahomoCys)-OH] (Hexanoyl-[dC]PPTQ[1Nal][β3hC]-OH; linker 1-7 via TBMB(SCH2CH2NH-DOTA)), the “inhibitory activity against FAP protease activity” value is recorded as “good inhibitory activity”. The IC50 under setting [1] came to 14.7 nM.

As to `CCCCCC(=O)N[C@H]1CSCc2cc(CSCCNC(=O)CN3CCN(CC(=O)O)CCN(CC(=O)O)CCN(CC(=O)O)CC3)cc(c2)CSC[C@@H](CC(=O)O)NC(=O)[C@H](Cc2cccc3ccccc23)NC(=O)[C@H](CCC(N)=O)NC(=O)[C@H]([C@@H](C)O)NC(=O)[C@@H]2CCCN2C(=O)[C@H]2CCCN2C1=O` [Compound 79, Hexanoyl-(Cys(tMeBn(DOTA-AET))-D-Pro-Pro-Thr-Gln-1Nal-betahomoCys)-OH] (Hexanoyl-C[dP]PTQ[1Nal][β3hC]-OH; linker 1-7 via TBMB(SCH2CH2NH-DOTA)), the IC50 under setting [1] is > 5000 nM. For the compound `CCCCCC(=O)N[C@H]1CSCc2cc(CSCCNC(=O)CN3CCN(CC(=O)O)CCN(CC(=O)O)CCN(CC(=O)O)CC3)cc(c2)CSC[C@@H](CC(=O)O)NC(=O)[C@H](Cc2cccc3ccccc23)NC(=O)[C@H](CCC(N)=O)NC(=O)[C@H]([C@@H](C)O)NC(=O)[C@H]2CCCN2C(=O)[C@@H]2CCCN2C1=O` [Compound 80, Hexanoyl-(Cys(tMeBn(DOTA-AET))-Pro-D-Pro-Thr-Gln-1Nal-betahomoCys)-OH] (Hexanoyl-CP[dP]TQ[1Nal][β3hC]-OH; linker 1-7 via TBMB(SCH2CH2NH-DOTA)), the IC50 under setting [1] was 566 nM. For `CCCCCC(=O)N[C@H]1CSCc2cc(CSCCNC(=O)CN3CCN(CC(=O)O)CCN(CC(=O)O)CCN(CC(=O)O)CC3)cc(c2)CSC[C@@H](CC(=O)O)NC(=O)[C@H](Cc2cccc3ccccc23)NC(=O)[C@H](CCC(N)=O)NC(=O)[C@@H]([C@H](C)O)NC(=O)[C@@H]2CCCN2C(=O)[C@@H]2CCCN2C1=O` [Compound 81, Hexanoyl-(Cys(tMeBn(DOTA-AET))-Pro-Pro-D-Thr-Gln-1Nal-betahomoCys)-OH] (Hexanoyl-CPP[dT]Q[1Nal][β3hC]-OH; linker 1-7 via TBMB(SCH2CH2NH-DOTA)), the “inhibitory activity against FAP protease activity” value is “good inhibitory activity”. In addition, the 50% inhibitory concentration (IC50) under setting [1] is 70.6 nM.

On to `CCCCCC(=O)N[C@H]1CSCc2cc(CSCCNC(=O)CN3CCN(CC(=O)O)CCN(CC(=O)O)CCN(CC(=O)O)CC3)cc(c2)CSC[C@@H](CC(=O)O)NC(=O)[C@H](Cc2cccc3ccccc23)NC(=O)[C@@H](CCC(N)=O)NC(=O)[C@H]([C@@H](C)O)NC(=O)[C@@H]2CCCN2C(=O)[C@@H]2CCCN2C1=O` [Compound 82, Hexanoyl-(Cys(tMeBn(DOTA-AET))-Pro-Pro-Thr-D-Gln-1Nal-betahomoCys)-OH] (Hexanoyl-CPPT[dQ][1Nal][β3hC]-OH; linker 1-7 via TBMB(SCH2CH2NH-DOTA)), for which the IC50 under setting [1] was determined as 209 nM.

The record behind these values is patent EP4653451A1, “POLYPEPTIDE COMPOUND AND USE THEREOF” (Chengdu New Radiomedicine Technology Co., Ltd., priority 2023, dated 2024).
